A word on the inhibition: it is the drop in the measured response relative to a control, in per cent. As usually defined, the IC50 is the concentration that inhibits the measured activity by half.

Here are results for 31 compounds from ChEMBL document CHEMBL1129909, “Potent non-peptidic dual inhibitors of endothelin-converting enzyme and neutral endopeptidase 24.11” (Bioorg Med Chem Lett, 1997).

The target of test [1] is T1, Endothelin-converting enzyme 1 (Homo sapiens) (UniProt P42892).
T1 sequence (whole entry): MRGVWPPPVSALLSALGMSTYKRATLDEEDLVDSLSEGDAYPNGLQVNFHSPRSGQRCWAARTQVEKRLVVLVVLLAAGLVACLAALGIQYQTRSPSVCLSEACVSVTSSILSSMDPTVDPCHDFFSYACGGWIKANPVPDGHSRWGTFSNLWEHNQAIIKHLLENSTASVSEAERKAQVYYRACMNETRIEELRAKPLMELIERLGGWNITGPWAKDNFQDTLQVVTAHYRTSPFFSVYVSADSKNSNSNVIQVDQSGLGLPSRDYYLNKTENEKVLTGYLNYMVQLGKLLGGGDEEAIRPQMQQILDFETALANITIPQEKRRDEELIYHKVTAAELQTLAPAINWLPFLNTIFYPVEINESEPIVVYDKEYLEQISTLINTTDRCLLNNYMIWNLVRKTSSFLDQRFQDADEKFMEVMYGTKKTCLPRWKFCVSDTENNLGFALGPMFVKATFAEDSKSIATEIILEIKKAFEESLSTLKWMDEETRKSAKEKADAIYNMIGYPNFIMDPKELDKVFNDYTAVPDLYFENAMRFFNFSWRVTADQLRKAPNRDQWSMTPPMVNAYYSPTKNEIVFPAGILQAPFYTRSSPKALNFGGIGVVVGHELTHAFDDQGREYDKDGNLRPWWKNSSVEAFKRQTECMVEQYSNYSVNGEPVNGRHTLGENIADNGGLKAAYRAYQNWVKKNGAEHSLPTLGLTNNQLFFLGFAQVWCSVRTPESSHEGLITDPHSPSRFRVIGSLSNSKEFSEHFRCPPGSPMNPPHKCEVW
Put plainly: In vitro inhibition to recombinant human endothelin converting enzyme. The arrangement: concentration or dose not given beside the values. The settings on record: concentration not given here.

Test [2] deals with T2, Endothelin-converting enzyme 1 (Homo sapiens, UniProt P42892).
T2 sequence (P42892 whole entry): T1 sequence (whole entry)
Kind of test: In vitro inhibition against recombinant human Endothelin converting enzyme 1 activity.

For test [3], the target named is Neprilysin (Homo sapiens, UniProt P08473).
Chain of Neprilysin (P08473 whole entry): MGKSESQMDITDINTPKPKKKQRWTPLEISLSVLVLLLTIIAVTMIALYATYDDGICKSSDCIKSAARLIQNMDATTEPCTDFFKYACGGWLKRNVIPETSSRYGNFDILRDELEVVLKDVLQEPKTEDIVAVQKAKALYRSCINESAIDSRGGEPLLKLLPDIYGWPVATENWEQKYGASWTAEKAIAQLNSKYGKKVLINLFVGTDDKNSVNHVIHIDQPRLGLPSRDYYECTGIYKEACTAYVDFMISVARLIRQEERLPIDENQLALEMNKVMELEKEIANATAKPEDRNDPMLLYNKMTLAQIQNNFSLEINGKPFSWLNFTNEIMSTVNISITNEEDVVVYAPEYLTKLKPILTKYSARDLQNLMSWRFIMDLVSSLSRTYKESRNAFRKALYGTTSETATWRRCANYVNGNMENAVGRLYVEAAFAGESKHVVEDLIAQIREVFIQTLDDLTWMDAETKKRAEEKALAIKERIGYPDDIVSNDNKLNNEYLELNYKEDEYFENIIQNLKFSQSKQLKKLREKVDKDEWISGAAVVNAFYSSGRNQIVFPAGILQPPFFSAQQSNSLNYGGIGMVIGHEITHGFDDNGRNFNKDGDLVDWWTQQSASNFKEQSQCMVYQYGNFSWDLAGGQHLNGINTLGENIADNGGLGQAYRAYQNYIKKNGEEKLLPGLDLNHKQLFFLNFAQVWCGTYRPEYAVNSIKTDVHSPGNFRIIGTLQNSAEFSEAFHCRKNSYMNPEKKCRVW
Description: Inhibition of neutral endopeptidase 24.11(NEP)

As to `O=P(O)(O)CCC(Cc1ccc(-c2ccccc2)cc1)c1nnn[nH]1` (configuration not stated), the inhibition in test [1] came to 0%.

For `O=P(O)(O)CC(Cc1ccc(-c2ccccc2)cc1)c1nnn[nH]1` (configuration not stated), the inhibition in test [1] turned out to be 8%.

As for `O=P(O)(O)CN[C@@H](Cc1ccc(-c2ccccc2)cc1)c1nn[nH]n1`, the inhibition in test [1] was found to be 79%.

With `O=P(O)(O)CN[C@@H](Cc1ccc(-c2ccccc2)cc1)c1nc[nH]n1`, in test [1], the inhibition stood at 0%.

For `O=C(O)[C@H](Cc1ccc(-c2ccccc2)cc1)NCP(=O)(O)O`, in test [1], the inhibition turned out to be 20%.

In the case of `SCC(Cc1ccc(-c2ccccc2)cc1)c1nnn[nH]1` (configuration not stated), the inhibition in test [1] came to 26%.

On to `O=P(O)(O)C(N[C@H](Cc1ccc(-c2ccccc2)cc1)c1nnn[nH]1)c1cccc2ccccc12` (some centres not stated), for which the inhibition in test [1] turned out to be 49%. Moreover, the IC50 in test [2] was greater than 1000 nM.

As for `O=P(O)(O)C(Cc1ccccc1)N[C@H](Cc1ccc(-c2ccccc2)cc1)c1nnn[nH]1` (some centres not stated), the inhibition in test [1] was found to be 18%. For the same compound, in test [2], the half-maximal inhibitory concentration (IC50) came to 5000 nM.

On to `O=P(O)(O)C(Cc1ccc2ccccc2c1)N[C@@H](Cc1ccc(-c2ccccc2)cc1)c1nnn[nH]1` (some centres not stated) [CGS-314447], for which the inhibition in test [1] was 91%. In addition, the IC50 in test [2] is 45 nM.

For the compound `O=P(O)(O)C(Cc1cccc2c1OCO2)N[C@H](Cc1ccc(-c2ccccc2)cc1)c1nnn[nH]1` (some centres not stated), the inhibition in test [1] is 50%. For the same compound, in test [2], the half-maximal inhibitory concentration (IC50) was found to be 1100 nM.

`O=P(O)(O)C(Cc1cccc2ccccc12)N[C@H](Cc1ccc(-c2ccccc2)cc1)c1nnn[nH]1` (some centres not stated): in test [1], the inhibition was found to be 85%. For the same compound, the concentration for half-maximal inhibition (IC50) in test [2] is 160 nM.

In the case of `O=C(O)c1n[nH]c([C@H](Cc2ccc(-c3ccccc3)cc2)NCP(=O)(O)O)n1`, the inhibition in test [1] was determined as 14%.

Take `O=C(O)CNC(=O)C(CS)Cc1ccccc1` (configuration not stated) [THIORPHAN]: the inhibition in test [1] was 9%. Further, the IC50 in test [2] was greater than 100000 nM.

Take `O=P(O)(O)C(Cc1ccccc1)N[C@@H](Cc1ccc(-c2ccccc2)cc1)c1nnn[nH]1` (some centres not stated): the inhibition in test [1] turned out to be 83%. For the same compound, in test [2], the IC50 stood at 280 nM.

In the case of `O=P(O)(O)CN[C@@H](CCc1ccccc1)c1nnn[nH]1`, the inhibition in test [1] was found to be 0%.

As to `O=P(O)(O)C(Cc1cccc2c1OCO2)N[C@@H](Cc1ccc(-c2ccccc2)cc1)c1nnn[nH]1` (some centres not stated), the inhibition in test [1] turned out to be 87%. Moreover, the half-maximal inhibitory concentration (IC50) in test [2] was 110 nM.

For the compound `O=P(O)(O)C(Cc1cccc2cccnc12)N[C@@H](Cc1ccc(-c2ccccc2)cc1)c1nnn[nH]1` (some centres not stated), the inhibition in test [1] was 93%. In addition, the IC50 in test [2] came out at 23 nM.

`O=P(O)(O)C(Cc1ccc2ccccc2c1)N[C@H](Cc1ccc(-c2ccccc2)cc1)c1nnn[nH]1` (some centres not stated): the inhibition in test [1] is 47%. The IC50 in test [2] was 1400 nM.

On to `O=P(O)(O)CN[C@@H](Cc1ccc2ccccc2c1)c1nnn[nH]1`, for which, in test [1], the inhibition came out at 0%.

As to `O=P(O)(O)C(Cc1cccc2cccnc12)N[C@H](Cc1ccc(-c2ccccc2)cc1)c1nnn[nH]1` (some centres not stated), the inhibition in test [1] stood at 22%. Besides, the half-maximal inhibitory concentration (IC50) in test [2] is greater than 1000 nM.

With `O=C(O)C[C@H](Cc1ccc(-c2ccccc2)cc1)NCP(=O)(O)O`, the inhibition in test [1] came out at 0%.

For `O=P(O)(CCc1ccc2ccccc2c1)N[C@@H](Cc1ccc(-c2ccccc2)cc1)c1nnn[nH]1`, the inhibition in test [1] came to 0%.

`O=P(O)(O)CN[C@H](Cc1ccc(-c2ccccc2)cc1)c1nnn[nH]1`: the inhibition in test [1] came out at 0%.

Regarding `CC(C)C[C@H](NP(=O)(O)O[C@@H]1O[C@@H](C)[C@H](O)[C@@H](O)[C@H]1O)C(=O)N[C@@H](Cc1c[nH]c2ccccc12)C(=O)O` [PHOSPHORAMIDON], in test [1], the inhibition turned out to be 47%. This compound also displayed a half-inhibitory concentration (IC50) in test [3] of 30 nM.

For the compound `O=P(O)(O)C(Cc1cccc2ccccc12)N[C@@H](Cc1ccc(-c2ccccc2)cc1)c1nnn[nH]1` (some centres not stated), in test [1], the inhibition was 95%. In test [2], the IC50 was determined as 17 nM.

Take `O=P(O)(O)C(Cc1ccc2c(c1)OCO2)N[C@@H](Cc1ccc(-c2ccccc2)cc1)c1nnn[nH]1` (some centres not stated): the inhibition in test [1] was 85%. In test [2], the 50% inhibitory concentration (IC50) stood at 93 nM.

As to `O=P(O)(O)CN[C@@H](Cc1ccc(-c2ccccc2)cc1)c1nnn[nH]1`, in test [2], the IC50 was found to be 410 nM.

As to `O=P(O)(O)CN[C@@H](Cc1ccccc1)c1nnn[nH]1`, the inhibition in test [1] stood at 0%.

Regarding `O=P(O)(O)C(N[C@@H](Cc1ccc(-c2ccccc2)cc1)c1nnn[nH]1)c1cccc2ccccc12` (some centres not stated), the inhibition in test [1] turned out to be 14%. Further, in test [2], the 50% inhibitory concentration (IC50) is greater than 1000 nM.

Turning to `O=P(O)(O)C(Cc1ccc2c(c1)OCO2)N[C@H](Cc1ccc(-c2ccccc2)cc1)c1nnn[nH]1` (some centres not stated), the inhibition in test [1] is 76%. The IC50 in test [2] turned out to be 390 nM.

In the case of `O=P(O)(O)CN[C@@H](Cc1c[nH]c2ccccc12)c1nnn[nH]1`, the inhibition in test [1] came to 10%.
